Measured values as given in the supplement of paper PMC11451515.

System: SEM cells
Assay: cell viability relative to DMSO control; higher = less cytotoxic
Conditions: 48 h
Procedure, shortened: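 NOMO1 or SEM cells were plated at 500 cells/well and P12-Ichikawa cells at 1000 cells/well in 1536-well plates (5 μl), after each leukemia line had been adapted for at least four passages in each medium. Pin dosing delivered library compounds in DMSO at 11 threefold concentrations, 47 μM to 0.79 nM. CellTiter-Glo One luminescence was read after 48 h at 37°C. Viability is reported as a per-plate percentage of DMSO wells, with cell-free wells as background.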

[1] = HPLM + 10% dialyzed FBS, 0.000781 µM
[2] = HPLM + 10% dialyzed FBS, 0.00234 µM
[3] = HPLM + 10% dialyzed FBS, 0.00702 µM
[4] = HPLM + 10% dialyzed FBS, 0.0211 µM
[5] = HPLM + 10% dialyzed FBS, 0.0632 µM
[6] = HPLM + 10% dialyzed FBS, 0.19 µM
[7] = HPLM + 10% dialyzed FBS, 0.569 µM
[8] = HPLM + 10% dialyzed FBS, 1.71 µM
[9] = HPLM + 10% dialyzed FBS, 5.12 µM
[10] = HPLM + 10% dialyzed FBS, 15.4 µM
[11] = HPLM + 10% dialyzed FBS, 46.1 µM
[12] = RPMI 5 mM glucose + 10% FBS, 0.000781 µM
[13] = RPMI 5 mM glucose + 10% FBS, 0.00234 µM
[14] = RPMI 5 mM glucose + 10% FBS, 0.00702 µM
[15] = RPMI 5 mM glucose + 10% FBS, 0.0211 µM
[16] = RPMI 5 mM glucose + 10% FBS, 0.0632 µM
[17] = RPMI 5 mM glucose + 10% FBS, 0.19 µM
[18] = RPMI 5 mM glucose + 10% FBS, 0.569 µM
[19] = RPMI 5 mM glucose + 10% FBS, 1.71 µM
[20] = RPMI 5 mM glucose + 10% FBS, 5.12 µM
[21] = RPMI 5 mM glucose + 10% FBS, 15.4 µM
[22] = RPMI 5 mM glucose + 10% FBS, 46.1 µM
[23] = RPMI 5 mM glucose + 10% dialyzed FBS, 0.000781 µM
[24] = RPMI 5 mM glucose + 10% dialyzed FBS, 0.00234 µM
[25] = RPMI 5 mM glucose + 10% dialyzed FBS, 0.00702 µM
[26] = RPMI 5 mM glucose + 10% dialyzed FBS, 0.0211 µM
[27] = RPMI 5 mM glucose + 10% dialyzed FBS, 0.0632 µM
[28] = RPMI 5 mM glucose + 10% dialyzed FBS, 0.19 µM
[29] = RPMI 5 mM glucose + 10% dialyzed FBS, 0.569 µM
[30] = RPMI 5 mM glucose + 10% dialyzed FBS, 1.71 µM
[31] = RPMI 5 mM glucose + 10% dialyzed FBS, 5.12 µM
[32] = RPMI 5 mM glucose + 10% dialyzed FBS, 15.4 µM
[33] = RPMI 5 mM glucose + 10% dialyzed FBS, 46.1 µM

| Structure (SMILES) | cell viability [1] [%] | cell viability [2] [%] | cell viability [3] [%] | cell viability [4] [%] | cell viability [5] [%] | cell viability [6] [%] | cell viability [7] [%] | cell viability [8] [%] | cell viability [9] [%] | cell viability [10] [%] | cell viability [11] [%] | cell viability [12] [%] | cell viability [13] [%] | cell viability [14] [%] | cell viability [15] [%] | cell viability [16] [%] | cell viability [17] [%] | cell viability [18] [%] | cell viability [19] [%] | cell viability [20] [%] | cell viability [21] [%] | cell viability [22] [%] | cell viability [23] [%] | cell viability [24] [%] | cell viability [25] [%] | cell viability [26] [%] | cell viability [27] [%] | cell viability [28] [%] | cell viability [29] [%] | cell viability [30] [%] | cell viability [31] [%] | cell viability [32] [%] | cell viability [33] [%] |
| --- | --- | --- | --- | --- | --- | --- | --- | --- | --- | --- | --- | --- | --- | --- | --- | --- | --- | --- | --- | --- | --- | --- | --- | --- | --- | --- | --- | --- | --- | --- | --- | --- | --- |
| CC(=O)N(C)C1(c2ccccc2)CCN(CCC[C@]2(c3ccc(Cl)c(Cl)c3)CCCN(C(=O)c3ccccc3)C2)CC1 | 120 | 129 | 124 | 116 | 123 | 120 | 74.1 | 14.2 | 11.2 | 9.08 | 7.03 | 109 | 130 | 103 | 126 | 123 | 123 | 78.7 | 9.2 | 6.49 | 6.83 | 4.78 | 109 | 145 | 119 | 128 | 139 | 128 | 133 | 18.4 | 12 | 10.6 | 6.46 |
| O=C(O)c1cc(O)c2c(c1)C(=O)c1cccc(O)c1C2=O | 112 | 113 | 103 | 108 | 110 | 116 | 89.7 | 111 | 96.8 | 92.9 | 91.9 | 105 | 108 | 105 | 106 | 104 | 120 | 108 | 111 | 97.9 | 92.9 | 84.4 | 119 | 116 | 108 | 117 | 118 | 105 | 111 | 113 | 116 | 96.6 | 84.9 |
| C[C@]12CCC3c4ccc(O)cc4CCC3C1CCC2=O (stereo partly drawn) | 70.1 | 81.6 | 88.8 | 84.5 | 91.4 | 73.6 | 62.2 | 77.8 | 71.7 | 42.2 | 58.9 | 94 | 92.3 | 96.3 | 104 | 88.9 | 106 | 82 | 80.7 | 81.2 | 64.6 | 85 | 103 | 95.4 | 98.4 | 103 | 116 | 99.6 | 80.7 | 82.8 | 93.2 | 35.6 | 71.4 |
| CO[C@H]1CCC(O[C@H]2C[C@H]([C@]3(C)CC[C@]4(C[C@H](O)[C@@H](C)[C@@H]([C@@H](C)/C=C(\C)C(=O)[C@H](C)C[C@H](C)C(=O)[O-])O4)O3)O[C@]3(O[C@@H]([C@H]4O[C@@](O)(CO)[C@H](C)C[C@@H]4C)C[C@@H]3C)[C@@H]2C)O[C@@H]1C (stereo partly drawn) | – | – | – | – | – | – | – | – | – | – | – | 121 | 119 | 112 | 108 | 117 | 128 | 98.3 | 66.6 | 29.8 | 18.7 | 14.3 | – | – | – | – | – | – | – | – | – | – | – |
| COc1ccccc1[C@H](c1cccc2ccccc12)[C@@](C)(C#N)C(=O)N1CCC(c2cccc(C(F)(F)F)c2)CC1 | 87.3 | 103 | 96.6 | 97.4 | 107 | 103 | 108 | 99.2 | 89.3 | 54.4 | 39.7 | 92.3 | 104 | 102 | 107 | 102 | 114 | 105 | 119 | 111 | 84.7 | 56 | 83.3 | 91.5 | 100 | 99.4 | 90.8 | 104 | 102 | 87.8 | 93.9 | 76.6 | 54.9 |
| CC[C@H]1OC(=O)[C@H](C)[C@@H](O[C@H]2C[C@@](C)(OC)[C@@H](O)[C@H](C)O2)[C@H](C)[C@@H](O[C@@H]2O[C@H](C)C[C@H](N(C)C)[C@H]2O)[C@](C)(OC)C[C@@H](C)C(=O)[C@H](C)[C@@H](O)[C@]1(C)O | 96.8 | 95.3 | 98.4 | 98.4 | 103 | 91.7 | 93.8 | 97.3 | 84.6 | 92.7 | 87.6 | 97 | 102 | 96 | 99 | 103 | 106 | 105 | 95.8 | 90.4 | 93.4 | 84.7 | 105 | 111 | 111 | 101 | 110 | 105 | 117 | 114 | 82.4 | 93 | 83.2 |
| CC(C(C)N1CC(=O)NC(=O)C1)N1CC(=O)NC(=O)C1 (stereo not drawn) | 97.2 | 136 | 116 | 125 | 116 | 128 | 123 | 106 | 95.2 | 58.4 | 40.5 | 73.4 | 79.9 | 101 | 102 | 92 | 104 | 80.8 | 60.1 | 49 | 31 | 19.7 | 86 | 93.3 | 120 | 134 | 122 | 115 | 128 | 91.3 | 65.7 | 39.1 | 35.1 |
| Nc1nc(F)nc2c1ncn2[C@@H]1O[C@H](COP(=O)(O)O)[C@@H](O)[C@@H]1O | 107 | 123 | 117 | 113 | 128 | 117 | 123 | 56.3 | 35.7 | 16.6 | 8.32 | 107 | 130 | 116 | 92.1 | 114 | 123 | 128 | 73.1 | 93.7 | 19.7 | 11.1 | 103 | 126 | 110 | 98.2 | 134 | 114 | 105 | 52.9 | 46.3 | 18 | 9.23 |
| Cc1ccc(C(=O)Nc2cccc(C(F)(F)F)c2)cc1Nc1nc(-c2cccnc2)nc2c1cnn2C | 38.9 | 83.8 | 89.1 | 87.7 | 78.7 | 95.3 | 90.5 | 75.3 | 83.9 | 59 | 53.4 | 58.7 | 103 | 104 | 102 | 85.7 | 101 | 83 | 83 | 98.4 | 56.8 | 60.6 | 31 | 92.1 | 109 | 83.8 | 82.8 | 97.7 | 92.1 | 81.1 | 113 | 68.5 | 62.1 |
| OC1=CC=C(C=C1)C/2=C/C3=C(OC2)C=C(O)C=C3 | 107 | 111 | 112 | 109 | 114 | 120 | 101 | 84.9 | 21.2 | 2.3 | 1.5 | 108 | 117 | 122 | 115 | 109 | 106 | 80.8 | 93.1 | 23.7 | 1.46 | 1.13 | 111 | 107 | 125 | 90.8 | 99.1 | 108 | 85.5 | 89.1 | 25 | 2.21 | 1.74 |
| CCNC(=O)Nc1ccc(Oc2ncnc(N)c2/C=N/OC)cc1Cl | 96.9 | 100 | 99.8 | 105 | 110 | 112 | 117 | 73.5 | 78.5 | 68.1 | 83.1 | 75.3 | 84.1 | 75.5 | 78.7 | 74.9 | 79.5 | 70.5 | 37.4 | 70 | 44.8 | 56.8 | 99.5 | 103 | 111 | 111 | 108 | 117 | 111 | 55.9 | 75.4 | 56 | 74.7 |
| CN(C)CCCC1(c2ccc(F)cc2)OCc2cc(C#N)ccc21 (stereo not drawn) | 94.8 | 101 | 103 | 106 | 100 | 94.5 | 91.7 | 96.7 | 83.6 | 86.9 | 73.6 | 91.5 | 99.4 | 89.4 | 99.1 | 86.5 | 96.6 | 82.4 | 93.1 | 74.2 | 90.2 | 78.1 | 109 | 109 | 106 | 108 | 113 | 120 | 84.1 | 105 | 70.7 | 92.2 | 76 |
| Cc1ccc([C@@H]2O[C@H](CO)[C@@H](O)[C@H](O)[C@H]2O)cc1Cc1ccc(-c2ccc(F)cc2)s1 | 108 | 112 | 117 | 112 | 130 | 114 | 119 | 115 | 110 | 125 | 101 | 109 | 117 | 112 | 122 | 114 | 117 | 123 | 121 | 111 | 118 | 69.5 | 113 | 103 | 106 | 118 | 132 | 119 | 109 | 98.7 | 107 | 116 | 71.2 |
| CCN(CC)CCNC(=O)c1c(C)[nH]c(/C=C2\C(=O)Nc3ccc(F)cc32)c1C | 48 | 47.3 | 43.4 | 53 | 41.8 | 13 | 9.03 | 6.26 | 5.73 | 4.36 | 4.22 | 72.7 | 66.3 | 58.1 | 57 | 34.1 | 10.6 | 9.65 | 6.37 | 5.9 | 3.85 | 4.31 | 52.8 | 42.7 | 42.2 | 44.5 | 27.6 | 9.68 | 9.05 | 6.13 | 5.9 | 3.85 | 3.99 |
| CN1CCc2c(c3ccccc3n2Cc2ccc(C(=O)NO)cc2)C1 | 81.4 | 76.1 | 79.7 | 95.4 | 84.2 | 79.2 | 70.7 | 83.9 | 88.3 | 25.2 | 11.7 | 87.3 | 78.9 | 88.5 | 92.9 | 84.8 | 78 | 57.5 | 97.3 | 88.3 | 38.6 | 26.2 | 76.7 | 60.4 | 67 | 78.4 | 69.5 | 61.2 | 58.1 | 77.2 | 94.6 | 32 | 22.6 |
